According to patent US20190231757A1, “COMBINATION OF SPLEEN TYROSINE KINASE INHIBITORS AND OTHER THERAPEUTIC AGENTS” (Takeda Pharmaceutical Company Limited, priority 2016, published 2019):
Where a name gives a salt, the structure may show the parent alone.

System: WSU-Luc human lymphoma xenografts
Assay: Antitumor activity in SCID mice bearing WSU-Luc human lymphoma xenografts, ibrutinib combination (Example 12)
Assay type: in vivo, mouse
Conditions: Day 20, alone or combined
Protocol: The study ended on Day 20 of dosing.
Tumor growth was monitored with vernier calipers. Tumor volume was calculated using the formula V=W^2×L/2, where V=volume, W=width and L=length of the tumor. When the mean tumor volume reached approximately 190 mm^3, the animals were randomized into treatment groups (n=8/group). […] Tumor growth and body weight were measured twice per week. Tumor growth inhibition and body weight change were calculated on Day 20 of treatment.
Statistical analysis: The differences in the tumor growth trends over time between pairs of treatment groups were assessed using linear mixed effects regression models. These models account for the fact that each animal was measured at multiple time points. A separate model was fit for each comparison, and the areas under the curve (AUC) for each treatment group were calculated using the predicted values from the model. The percent decrease in AUC (dAUC) relative to the reference group was then calculated.
The change in AUC relative to the control was calculated for both single agent treatment groups as well as the combination group. […] The results can be divided into four categories: synergistic, additive, sub-additive, and antagonistic.
For this analysis, a T/C ratio was calculated for each animal by dividing the tumor measurement for the given animal by the mean tumor measurement across all control animals. The T/C ratios across a treatment group were compared to the T/C ratios of the control group using a two-tailed Welch's t-test.

[1] = Compound A 60 mg/kg, ibrutinib 20 mg/kg

**Q.** Which results are given for `Cn1cc(-c2nc(N[C@@H]3CCCC[C@@H]3N)c(F)c3c2C(=O)NC3)cn1` [Compound A, 6-((1R,2S)-2-aminocyclohexylamino)-7-fluoro-4-(1-methyl-1H-pyrazol-4-yl)-1H-pyrrolo[3,4-c]pyridine-3 (2H)-one citrate]?
**A.** TGI (%) (Compound A 60 mg/kg PO QD, ibrutinib 20 mg/kg PO QD): 37.6%; Mean Tumor Volume (mm^3) ± SEM [1]: 680.4 ± 120.1 mm^3; T/C [1]: 0.62
